# Assay results published in patent US10112940B2, “Histone demethylase inhibitors” (Celgene Quanticel Research, Inc., priority 2014, dated 2018).
# Columns and labels:
# JMJD2C = JMJD2C (Homo sapiens (Human), UniProt Q9H3R0); experiment: JMJD2C in vitro enzyme inhibition assay (TR-FRET); type: biochemical; settings: 0.3 nM JMJD2C, 300 nM H3K9me3-biotin peptide, 2 μM alpha-ketoglutaric acid, 30 minutes
# Method: This assay determines the ability of a test compound to inhibit JMJD2C demethylase activity. Baculovirus expressed JMJD2C (GenBank Accession #BC143571, AA 2-372) was purchased from BPS Bioscience (Cat#50105).
# The ability of test compounds to inhibit the activity of JMJD2C was determined in 384-well plate format under the following reaction conditions: 0.3 nM JMJD2C, 300 nM H3K9me3-biotin labeled peptide (Anaspec cat #64360), 2 μM alpha-ketoglutaric acid in assay buffer of 50 mM HEPES, pH7.3, 0.005% Brij35, 0.5 mM TCEP, 0.2 mg/ml BSA, 50 μM sodium L-ascorbate, and 2 μM ammonium iron(II) sulfate. Reaction product was determined quantitatively by TR-FRET after the addition of detection reagent Phycolink Streptavidin-allophycocyanin (Prozyme) and Europium-anti-di-methylated histone H3 lysine 9 (H3K9me2) antibody (PerkinElmer) in the presence of 5 mM EDTA in LANCE detection buffer (PerkinElmer) at a final concentration of 50 nM and 1 nM, respectively.
# The assay reaction was initiated by the following: 2 μl of the mixture of 900 nM H3K9me3-biotin labeled peptide and 6 μM alpha-ketoglutaric acid with 2 μl of 11-point serial diluted inhibitor in 3% DMSO were added to each well of the plate, followed by the addition of 2 μl of 0.9 nM JMJD2C to initiate the reaction. The reaction mixture was incubated at room temperature for 30 minutes, and terminated by the addition of 6 μl of 5 mM EDTA in LANCE detection buffer containing 100 nM Phycolink Streptavidin-allophycocyanin and 2 nM Europium-anti-H3K9me2 antibody. Plates were read by EnVisionMultilabel Reader in TR-FRET mode (excitation at 320 nm, emission at 615 nm and 665 nm) after 1 hour incubation at room temperature. A ratio was calculated (665/615) for each well and fitted to determine inhibition constant (IC50).
# The ability of the compounds disclosed herein to inhibit demethylase activity was quantified and the respective IC50 value was determined. Table 3 provides the IC50 values of various compounds disclosed herein.
# [1] = system: KYSE-150 esophageal carcinoma cell line; experiment: In vitro cell-based assay: BrdU incorporation cell proliferation ELISA; set-up: species or system human; settings: Homo sapiens, KYSE-150 cells, 168 hours compound incubation, read-out: Cellular IC50
# Method: Cell lines tested include the JMJD2C gene amplified cell line KYSE-150. This is a quantitative ELISA assay measuring DNA incorporation of BrdU during S-phase as a direct readout of cellular proliferation.
# Assay Principle: This is a colorimetric immunoassay for the quantification of cell proliferation. Cells treated for 168 hours with test compounds are assayed for their ability to go through S-phase as a measure of their proliferative potential.
# Assay Method: The human KYSE-150 (SMAD4 mut, TP53 mut) esophageal carcinoma cell line was seeded at 2,000 cells/well on a 96-well tissue culture treated plate. After an overnight incubation, cells were treated with compound in an 11-point dilution series with final concentrations ranging from 100 μM to 2 nM. Cells were then incubated in the presence of compound for 168 hours. After compound incubation the cells were assayed using a BrdU Cell Proliferation ELISA (Roche). The cells were first incubated with BrdU labeling reagent for 2 hours. After 2 hours, the BrdU incorporated cells were fixed and denatured, probed with an anti-BrdU-Peroxidase antibody for 1.5 hours and washed. Finally, a tetramethylbenzidine peroxidase substrate was added to each well for 15 minutes followed by a H2SO4 stop solution. The plate was read at 450 nm, and the raw optical density data was transferred into XLFit (IDBS) for IC50 calculation using the formula: fit=(D+((Vmax*(x^n))/((x^n)+(Km^n))))
# Table 4 provides the cellular IC50 values of various compounds disclosed herein.
# Chain of JMJD2C (Q9H3R0 2-372): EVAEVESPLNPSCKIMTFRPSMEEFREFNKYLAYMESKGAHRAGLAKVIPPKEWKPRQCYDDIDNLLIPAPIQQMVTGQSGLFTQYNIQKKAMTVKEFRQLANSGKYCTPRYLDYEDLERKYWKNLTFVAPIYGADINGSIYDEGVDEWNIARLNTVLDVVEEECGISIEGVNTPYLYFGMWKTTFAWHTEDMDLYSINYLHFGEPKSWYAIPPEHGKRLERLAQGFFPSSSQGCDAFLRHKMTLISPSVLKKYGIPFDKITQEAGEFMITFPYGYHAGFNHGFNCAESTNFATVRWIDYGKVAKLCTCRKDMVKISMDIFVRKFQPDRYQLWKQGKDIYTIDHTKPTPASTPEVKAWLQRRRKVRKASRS
SMILES,IC50 (JMJD2C) [nM],IC50 [1] [nM]
"CCc1ccc(N(C)c2ccc(Oc3nc(O)c4ccncc4n3)cc2)nc1 [Example 97, 2-[4-[(5-ethylpyridin-2-yl)-methylamino]phenoxy]pyrido[3,4-d]pyrimidin-4-ol]",100 to 1000,100 to 1000
"Oc1nc(Oc2ccc3c(ccn3C3CCOCC3)c2)nc2cnccc12 [Example 91, 2-[1-(oxan-4-yl)indol-5-yl]oxypyrido[3,4-d]pyrimidin-4-ol]",100 to 1000,> 10000
"CC(CN)c1ccc(N(C)c2ccc(Oc3nc(O)c4ccncc4n3)cc2)cc1 (stereo not shown) [Example 37, 2-(4-{[4-(2-amino-1-methyl-ethyl)-phenyl]-methyl-amino}-phenoxy)-pyrido[3,4-d]pyrimidin-4-ol]",≤ 100,> 10000
"CCc1ccc(N(C)c2ccc(Oc3nc(O)c4ccncc4n3)cc2)cc1OCCOC [Example 66, 2-[4-[4-ethyl-3-(2-methoxyethoxy)-N-methylanilino]phenoxy]pyrido[3,4-d]pyrimidin-4-ol]",1000 to 10000,1000 to 10000
"CC(C)c1ccc(N(C)c2ccc(Oc3nc(O)c4ccncc4n3)cc2)cn1 [Example 109, 2-[4-[methyl-(6-propan-2-ylpyridin-3-yl)amino]phenoxy]pyrido[3,4-d]pyrimidin-4-ol]",100 to 1000,1000 to 10000
"CCc1ccc(N(C)c2ccc(Oc3nc(O)c4ccncc4n3)cc2)cc1N1CCOCC1 [Example 59, 2-[4-(4-ethyl-N-methyl-3-morpholin-4-ylanilino)phenoxy]pyrido[3,4-d]pyrimidin-4-ol]",≤ 100,> 10000
"C[C@H](c1ccccc1)N(C)c1ccc(Oc2nc(O)c3ccncc3n2)cc1 [Example 52, 2-[4-[methyl-[(1R)-1-phenylethyl]amino]phenoxy]pyrido[3,4-d]pyrimidin-4-ol]",100 to 1000,1000 to 10000
"Oc1nc(Oc2ccc3cn(Cc4ccccc4)nc3c2)nc2cnccc12 [Example 12, 2-(2-Benzyl-2H-indazol-6-yloxy)-pyrido[3,4-d]pyrimidin-4-ol]",100 to 1000,1000 to 10000
"CN(c1ccc(Oc2nc(O)c3ccncc3n2)cc1)c1cccc(C#N)c1 [Example 40, 3-{[4-(4-hydroxy-pyrido[3,4-d]pyrimidin-2-yloxy)-phenyl]-methyl-amino}-benzonitrile]",100 to 1000,> 10000
"CN(c1ccc(Oc2nc(O)c3ccncc3n2)cc1)c1cccc(S(C)(=O)=O)c1 [Example 56, 2-[4-(N-methyl-3-methylsulfonylanilino)phenoxy]pyrido[3,4-d]pyrimidin-4-ol]",100 to 1000,> 10000
"Cn1ccc2cc(Oc3nc(O)c4ccncc4n3)ccc21 [Example 2, 2-(1-Methyl-1H-indol-5-yloxy)-pyrido[3,4-d]pyrimidin-4-ol]",100 to 1000,≤ 100
"CN(c1ccc(Oc2nc(O)c3ccncc3n2)cc1)c1ccc(N2CCCC2)cc1 [Example 49, 2-[4-(N-methyl-4-pyrrolidin-1-ylanilino)phenoxy]pyrido[3,4-d]pyrimidin-4-ol]",1000 to 10000,100 to 1000
"Oc1nc(Oc2ccc3c(ccn3-c3ccccc3)c2)nc2cnccc12 [Example 103, 2-(1-phenylindol-5-yl)oxypyrido[3,4-d]pyrimidin-4-ol]",1000 to 10000,> 10000
"CCc1ccc(N(C)c2ccc(Oc3nc(O)c4ccncc4n3)cc2)cc1OCCN(C)C [Example 65, 2-[4-[3-[2-(dimethylamino)ethoxy]-4-ethyl-N-methylanilino]phenoxy]pyrido[3,4-d]pyrimidin-4-ol]",≤ 100,> 10000
"COCCN(C)CC(C)c1ccc(N(C)c2ccc(Oc3nc(O)c4ccncc4n3)cc2)cc1 (stereo not shown) [Example 38, 2-{4-[(4-{2-[(2-methoxy-ethyl)-methyl-amino]-1-methyl-ethyl}-phenyl)-methyl-amino]-phenoxy}-pyrido[3,4-d]pyrimidin-4-ol]",100 to 1000,≤ 100
"CC(C)Oc1ccc(N(C)c2ccc(Oc3nc(O)c4ccncc4n3)cc2)cc1 [Example 111, 2-[4-(N-methyl-4-propan-2-yloxyanilino)phenoxy]pyrido[3,4-d]pyrimidin-4-ol]",100 to 1000,100 to 1000
"COCC(C)c1ccc(N(C)c2ccc(Oc3nc(O)c4ccncc4n3)cc2)cc1 (stereo not shown) [Example 29, 2-(4-{[4-(2-methoxy-1-methyl-ethyl)-phenyl]-methyl-amino}-phenoxy)-pyrido[3,4-d]pyrimidin-4-ol]",100 to 1000,100 to 1000
"CN(c1ccc(Cl)cc1)c1ccc(Oc2nc(O)c3ccncc3n2)cc1 [Example 94, 2-[4-(4-chloro-N-methylanilino)phenoxy]pyrido[3,4-d]pyrimidin-4-ol]",100 to 1000,100 to 1000
"CN(C)c1ccc(N(C)c2ccc(Oc3nc(O)c4ccncc4n3)cc2)cc1 [Example 44, 2-[4-[4-(dimethylamino)-N-methylanilino]phenoxy]pyrido[3,4-d]pyrimidin-4-ol]",≤ 100,> 10000
"CC[C@@H](C)c1ccc(N(C)c2ccc(Oc3nc(O)c4ccncc4n3)cc2)cc1 [Example 78, 2-[4-[4-[(2R)-butan-2-yl]-N-methylanilino]phenoxy]pyrido[3,4-d]pyrimidin-4-ol]",1000 to 10000,≤ 100
"CN1CCN(Cc2cccc(N(C)c3ccc(Oc4nc(O)c5ccncc5n4)cc3)c2)CC1 [Example 41, 2-(4-{methyl-[3-(4-methyl-piperazin-1-ylmethyl)-phenyl]-amino}-phenoxy)-pyrido[3,4-d]pyrimidin-4-ol]",≤ 100,1000 to 10000
"CN(c1ccc(Oc2nc(O)c3ccncc3n2)cc1)c1ccc(OC(F)(F)F)cc1 [Example 110, 2-[4-[N-methyl-4-(trifluoromethoxy)anilino]phenoxy]pyrido[3,4-d]pyrimidin-4-ol]",1000 to 10000,100 to 1000
"Cc1ccc(N(C)c2ccc(Oc3nc(O)c4ccncc4n3)cc2)nc1 [Example 43, 2-[4-[methyl-(5-methylpyridin-2-yl)amino]phenoxy]pyrido[3,4-d]pyrimidin-4-ol]",100 to 1000,100 to 1000
"CN(c1ccccc1)c1cccc(Oc2nc(O)c3ccncc3n2)c1 [Example 7, 2-[3-(Methyl-phenyl-amino)-phenoxy]-pyrido[3,4-d]pyrimidin-4-ol]",1000 to 10000,1000 to 10000
"Oc1nc(Oc2ccc3c(c2)CCN3c2ccccc2)nc2cnccc12 [Example 32, 2-(1-phenyl-2,3-dihydro-1H-indol-5-yloxy)-pyrido[3,4-d]pyrimidin-4-ol]",100 to 1000,1000 to 10000
"CN1CCCN(c2cccc(N(C)c3ccc(Oc4nc(O)c5ccncc5n4)cc3)c2)CC1 [Example 88, 2-[4-[N-methyl-3-(4-methyl-1,4-diazepan-1-yl)anilino]phenoxy]pyrido[3,4-d]pyrimidin-4-ol]",≤ 100,> 10000
"Cc1ccc(N(C)c2ccc(Oc3nc(O)c4ccncc4n3)cc2)cc1F [Example 53, 2-[4-(3-fluoro-N,4-dimethylanilino)phenoxy]pyrido[3,4-d]pyrimidin-4-ol]",100 to 1000,100 to 1000
"CN(C(=O)Cc1ccccc1)c1ccc(Oc2nc(O)c3ccncc3n2)cc1 [Example 24, N-[4-(4-hydroxy-pyrido[3,4-d]pyrimidin-2-yloxy)-phenyl]-N-methyl-2-phenyl-acetamide]",100 to 1000,> 10000
"CN(c1ccc(Oc2nc(O)c3ccncc3n2)cc1)c1cccc(N2CCCC2)c1 [Example 48, 2-[4-(N-methyl-3-pyrrolidin-1-ylanilino)phenoxy]pyrido[3,4-d]pyrimidin-4-ol]",100 to 1000,> 10000
